Measured values reported in US4552882A, “7-(1-Pyrrolyl) derivatives of 1-ethyl-1,4-dihydro-4-oxoquinoline-3-carboxylic acids and 1-ethyl-1,4-dihydro-4-oxo-1,8-naphthyridine-3-carboxylic acids and their use as antimicrobial agents” (Provesan, SA, priority 1983, dated 1985).
Converted amounts (≈) assume the structure as drawn.

Assays:
Assay in all cases: MIC in vitro
[1] = test system: Bacillus subtilis ATCC 6633; assay type: cell-based; conditions: ATCC6633, Dextrose agar, 37° C., 20 hours
Procedure: (§1) (G. L. Daquet and Y. A. Chabbect, Techniques en bacteriologie (Bacteriological techniques), vol. 3, Flammarion Medecine Sciences, Paris, 1972 and W. B. Hugo and A. D. Rusell, Pharmaceutical Microbiology, Blackwell Scientific Publications, London, (1977)). Antibiotic medium no. 1 (seed agar) (Oxoid CM 327) Tryptone-soya broth (Oxoid CM 129) Ringer's physiological solution 1/4 (oxoid BR 52) Dextrose agar (BBL-11165) 0.1 N NaOH "Bacillus subtilis" ATCC 6633 Each of the microorganisms is seeded by streaking in tubes of Antibiotic medium No. 1 (seed agar), which are then incubated at 37° C. for 20 hours. Using a culture loop, the cultures are then seeded in tryptone-soyabroth and incubated at 37° C. for 20 hours. The culture obtained is diluted to 1/4 with Ringer's physiological solution, so as to obtain a standardized suspension of 10^7 -10^9 cfu/ml for each organism. Starting from a solution of 1,000 μg/ml in 0.1 N NaOH, each product is diluted in Dextrose agar (previously melted and maintained at 50° C.), with successive dilutions so as to obtain the following concentrations: 64--32--16--8--4--2--1--0.5--0.25--0.125 μg of derivative/ml medium. For each product, the solution of each concentration is subsequently distributed into Petri dishes 10 cm in diameter, with 10 ml of medium per dish and the same number of dishes as microorganisms to be tested. As soon as the medium has cooled, the dishes are seeded with the inoculations using 0.4 ml of inoculation per dish. They are spread with a Driglasky loop and the supernatant is removed. The seeded dishes are incubated at 37° C. for 20 hours.

Proteus morganii CHSP 16 = assay type: cell-based; conditions: Morganella morganii, CHSP16, Dextrose agar, 37° C., 20 hours
Procedure: as §1, with “"Proteus morganii" CHSP 16” for “"Bacillus subtilis" ATCC 6633”

[2] = test system: Salmonella typhimurius AMES 98; assay type: cell-based, Salmonella typhimurium; conditions: AMES98, Dextrose agar, 37° C., 20 hours
Procedure: (§2) (G. L. Daquet and Y. A. Chabbect, Techniques en bacteriologie (Bacteriological techniques), vol. 3, Flammarion Medecine Sciences, Paris, 1972 and W. B. Hugo and A. D. Rusell, Pharmaceutical Microbiology, Blackwell Scientific Publications, London, (1977)).
(§3) Antibiotic medium no. 1 (seed agar) (Oxoid CM 327)
(§4) Tryptone-soya broth (Oxoid CM 129)
(§5) Ringer's physiological solution 1/4 (oxoid BR 52) Dextrose agar (BBL-11165) 0.1 N NaOH
"Salmonella typhimurium" AMES 98
(§6) Each of the microorganisms is seeded by streaking in tubes of Antibiotic medium No. 1 (seed agar), which are then incubated at 37° C. for 20 hours. Using a culture loop, the cultures are then seeded in tryptone-soyabroth and incubated at 37° C. for 20 hours. The culture obtained is diluted to 1/4 with Ringer's physiological solution, so as to obtain a standardized suspension of 10^7 -10^9 cfu/ml for each organism.
(§7) Starting from a solution of 1,000 μg/ml in 0.1 N NaOH, each product is diluted in Dextrose agar (previously melted and maintained at 50° C.), with successive dilutions so as to obtain the following concentrations: 64--32--16--8--4--2--1--0.5--0.25--0.125 μg of derivative/ml medium.
(§8) For each product, the solution of each concentration is subsequently distributed into Petri dishes 10 cm in diameter, with 10 ml of medium per dish and the same number of dishes as microorganisms to be tested.
(§9) As soon as the medium has cooled, the dishes are seeded with the inoculations using 0.4 ml of inoculation per dish. They are spread with a Driglasky loop and the supernatant is removed. The seeded dishes are incubated at 37° C. for 20 hours.

[3] = test system: Salmonella typhimurius AMES 100; assay type: cell-based, Salmonella typhimurium; conditions: AMES100, Dextrose agar, 37° C., 20 hours
Procedure: as §2, §3, §4, §5
"Salmonella typhimurium" AMES 100
as §6, §7, §8, §9

| Structure (SMILES) | MIC [1] [µg/mL] | MIC (Proteus morganii CHSP 16) [µg/mL] | MIC [2] [µg/mL] | MIC [3] [µg/mL] |
| --- | --- | --- | --- | --- |
| CCn1cc(C(=O)O)c(=O)c2ccc(-n3cccc3)cc21 [Example 1, 7-(1-pyrrolyl)-1-ethyl-1,4-dihydro-4-oxo-3-quinolinecarboxylic acid] | < 0.125 | 8 (≈ 28.3 µM) | 0.5 (≈ 1.77 µM) | 4 (≈ 14.2 µM) |
| CCn1cc(C(=O)O)c(=O)c2cc(F)c(-n3cccc3)cc21 [Example 2, 6-fluoro-7-(1-pyrrolyl)-1-ethyl-1,4-dihydro-4-oxo-3-quinolinecarboxylic acid] | < 0.125 | 2 (≈ 6.66 µM) | < 0.125 | 0.5 (≈ 1.67 µM) |
| CCn1cc(C(=O)O)c(=O)c2ccc(-n3cccc3)nc21 [Example 3, 1-ethyl-1,4-dihydro-4-oxo-7-(1-pyrrolyl)-1,8-naphthyridine-3-carboxylic acid] | 0.25 (≈ 0.882 µM) | 8 (≈ 28.2 µM) | 0.5 (≈ 1.76 µM) | 8 (≈ 28.2 µM) |
| CCn1cc(C(=O)O)c(=O)c2cc(F)c(-n3cccc3)nc21 [Example 4, 1-ethyl-1,4-dihydro-4-oxo-6-fluoro-7-(1-pyrrolyl)-1,8-naphthyridine-3-carboxylic acid] | 0.03 (≈ 0.0996 µM) | 4 (≈ 13.3 µM) | 0.12 (≈ 0.398 µM) | 0.5 (≈ 1.66 µM) |
| CCn1cc(C(=O)O)c(=O)c2cnc(N3CCNCC3)nc21 [Pipemidic acid, reference compound] | 8 (≈ 26.4 µM) | 8 (≈ 26.4 µM) | 4 (≈ 13.2 µM) | 8 (≈ 26.4 µM) |
